Measured values taken from patent EP0332156B1, “Cephem compounds and processes for preparation thereof” (FUJISAWA PHARMACEUTICAL CO., LTD., priority 1988, dated 1989).

Tested on: E. coli 31
Assay: In vitro antibacterial activity (MIC), two-fold agar-plate dilution method
Type: cell-based
Settings: Escherichia coli; test strain E. coli 31; heart infusion agar; incubation at 37°C for 20 hours; inoculum 10^8 viable cells per ml
Protocol: In vitro antibacterial activity was determined by the two-fold agar-plate dilution method as described below. One loopful of an overnight culture of each test strain in Trypticase-soy broth (10^8 viable cells per ml) was streaked on heart infusion agar (HI-agar) containing graded concentrations of representative test compound, and the minimal inhibitory concentration (MIC) was expressed in terms of µg/mℓ after incubation at 37°C for 20 hours.

MIC: ≤ 0.025 µg/mL
Structure (SMILES): CON=C(C(=O)NC1C(=O)N2C(C(=O)[O-])=C(C[n+]3ccc4n3CCN4)CSC12)c1csc(N)n1 (stereo not shown) [(1)]
